Measurements reported in patent publication US12662479B2 (Foghorn Therapeutics Inc., priority 2020, dated 2026).

Tests used:
[1] = molecular target: T1, HiBit-BRG1 fusion protein (Homo sapiens, UniProt P51532); test: HiBiT-BRG1 cell-based degradation assay (Nano-Glo HiBiT Lytic Detection, 24 h); conditions: HeLa cells expressing HiBit-BRG1 and LgBit; for DC50: read-out: BRG1 HiBit Degradation IC50; for Dmax: HeLa, top dose 30 μM, read-out: BRG1 HiBit Degradation Maximum measured
T1 construct: expressed in transfected cells
T1 sequence (P51532 whole entry, the tested form may be a part): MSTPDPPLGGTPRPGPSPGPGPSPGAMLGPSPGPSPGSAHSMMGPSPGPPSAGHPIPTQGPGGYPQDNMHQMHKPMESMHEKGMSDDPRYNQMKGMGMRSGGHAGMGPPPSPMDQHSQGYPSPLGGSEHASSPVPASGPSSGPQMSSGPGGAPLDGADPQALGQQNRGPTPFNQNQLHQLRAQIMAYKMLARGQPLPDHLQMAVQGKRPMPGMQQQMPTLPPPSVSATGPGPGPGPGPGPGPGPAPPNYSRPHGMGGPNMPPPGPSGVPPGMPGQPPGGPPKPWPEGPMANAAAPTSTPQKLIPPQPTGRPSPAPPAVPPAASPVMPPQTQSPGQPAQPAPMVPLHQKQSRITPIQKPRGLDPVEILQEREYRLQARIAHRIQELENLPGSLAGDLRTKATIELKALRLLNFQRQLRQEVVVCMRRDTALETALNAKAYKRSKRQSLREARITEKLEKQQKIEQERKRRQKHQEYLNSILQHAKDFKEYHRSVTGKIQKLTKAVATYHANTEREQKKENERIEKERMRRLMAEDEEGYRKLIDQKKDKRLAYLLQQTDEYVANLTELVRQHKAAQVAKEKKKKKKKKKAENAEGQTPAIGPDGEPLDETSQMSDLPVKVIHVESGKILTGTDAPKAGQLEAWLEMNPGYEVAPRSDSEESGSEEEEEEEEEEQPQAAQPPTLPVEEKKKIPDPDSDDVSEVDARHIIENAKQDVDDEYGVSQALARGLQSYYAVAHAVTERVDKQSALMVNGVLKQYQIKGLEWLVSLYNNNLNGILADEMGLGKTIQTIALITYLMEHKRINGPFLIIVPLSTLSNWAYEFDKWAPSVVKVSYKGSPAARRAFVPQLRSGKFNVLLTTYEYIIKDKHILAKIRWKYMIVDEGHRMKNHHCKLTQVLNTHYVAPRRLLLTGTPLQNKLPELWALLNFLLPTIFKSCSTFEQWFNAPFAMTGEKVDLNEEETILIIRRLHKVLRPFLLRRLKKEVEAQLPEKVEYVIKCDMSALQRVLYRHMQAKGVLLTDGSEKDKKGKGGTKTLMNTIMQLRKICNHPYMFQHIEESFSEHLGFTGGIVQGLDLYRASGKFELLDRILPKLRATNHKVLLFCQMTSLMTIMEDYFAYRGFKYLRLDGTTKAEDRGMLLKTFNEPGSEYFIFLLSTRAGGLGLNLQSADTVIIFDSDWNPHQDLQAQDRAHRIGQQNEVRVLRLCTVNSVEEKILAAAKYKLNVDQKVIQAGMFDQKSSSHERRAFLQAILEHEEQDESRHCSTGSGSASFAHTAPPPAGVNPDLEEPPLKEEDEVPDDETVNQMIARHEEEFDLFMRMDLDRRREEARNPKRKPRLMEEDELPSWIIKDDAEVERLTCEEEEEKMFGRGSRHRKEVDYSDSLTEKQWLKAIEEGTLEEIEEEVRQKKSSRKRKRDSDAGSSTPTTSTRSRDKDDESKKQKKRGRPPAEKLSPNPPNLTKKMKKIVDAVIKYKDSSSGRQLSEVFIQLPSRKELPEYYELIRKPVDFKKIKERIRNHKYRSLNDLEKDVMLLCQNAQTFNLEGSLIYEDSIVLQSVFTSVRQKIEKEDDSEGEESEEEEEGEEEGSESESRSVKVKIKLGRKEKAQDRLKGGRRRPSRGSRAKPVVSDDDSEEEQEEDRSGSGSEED
Experimental: Procedure: A stable HeLa cell line expressing HiBiT-BRM was generated. On day 0, 5000 cells were seeded in 40 μL of media into each well of 384-well cell culture plates. […] Nano-Glo HiBiT Lytic Detection System (Promega N3050) reagent was freshly prepared and 20 ul was added to each well. Upon addition of this LgBit-containing reagent, the HiBiT and LgBiT proteins associate to form the luminescent NanoBiT luciferase. The plates were shaken for 10 minutes at room temperature and the bioluminescence read using an EnVision plate reader (PerkinElmer).
For measurement of BRG1 degradation, a stable HeLa cell line expressing HiBit-BRG1 and LgBit was generated. The same protocol as above was then followed.
(§1) The degradation % was calculated using the following formula: % degradation=100%−100%×(LumSample−LumLC)/(LumHC−LumLC). DMSO treated cells are employed as High Control (HC) and 2 μM of a known BRM/BRG1 degrader standard treated cells are employed as Low Control (LC).

HiBit-BRM fusion protein = molecular target: T2, HiBit-BRM fusion protein (Homo sapiens, UniProt P51531); test: HiBiT-BRM cell-based degradation assay (Nano-Glo HiBiT Lytic Detection, 24 h); conditions: HeLa cells expressing HiBiT-BRM; for DC50: read-out: BRM HiBit Degradation IC50; for BRM HiBit Degradation Maximum measured: top dose 30 μM
T2 construct: expressed in transfected cells
T2 sequence (P51531 whole entry, the tested form may be a part): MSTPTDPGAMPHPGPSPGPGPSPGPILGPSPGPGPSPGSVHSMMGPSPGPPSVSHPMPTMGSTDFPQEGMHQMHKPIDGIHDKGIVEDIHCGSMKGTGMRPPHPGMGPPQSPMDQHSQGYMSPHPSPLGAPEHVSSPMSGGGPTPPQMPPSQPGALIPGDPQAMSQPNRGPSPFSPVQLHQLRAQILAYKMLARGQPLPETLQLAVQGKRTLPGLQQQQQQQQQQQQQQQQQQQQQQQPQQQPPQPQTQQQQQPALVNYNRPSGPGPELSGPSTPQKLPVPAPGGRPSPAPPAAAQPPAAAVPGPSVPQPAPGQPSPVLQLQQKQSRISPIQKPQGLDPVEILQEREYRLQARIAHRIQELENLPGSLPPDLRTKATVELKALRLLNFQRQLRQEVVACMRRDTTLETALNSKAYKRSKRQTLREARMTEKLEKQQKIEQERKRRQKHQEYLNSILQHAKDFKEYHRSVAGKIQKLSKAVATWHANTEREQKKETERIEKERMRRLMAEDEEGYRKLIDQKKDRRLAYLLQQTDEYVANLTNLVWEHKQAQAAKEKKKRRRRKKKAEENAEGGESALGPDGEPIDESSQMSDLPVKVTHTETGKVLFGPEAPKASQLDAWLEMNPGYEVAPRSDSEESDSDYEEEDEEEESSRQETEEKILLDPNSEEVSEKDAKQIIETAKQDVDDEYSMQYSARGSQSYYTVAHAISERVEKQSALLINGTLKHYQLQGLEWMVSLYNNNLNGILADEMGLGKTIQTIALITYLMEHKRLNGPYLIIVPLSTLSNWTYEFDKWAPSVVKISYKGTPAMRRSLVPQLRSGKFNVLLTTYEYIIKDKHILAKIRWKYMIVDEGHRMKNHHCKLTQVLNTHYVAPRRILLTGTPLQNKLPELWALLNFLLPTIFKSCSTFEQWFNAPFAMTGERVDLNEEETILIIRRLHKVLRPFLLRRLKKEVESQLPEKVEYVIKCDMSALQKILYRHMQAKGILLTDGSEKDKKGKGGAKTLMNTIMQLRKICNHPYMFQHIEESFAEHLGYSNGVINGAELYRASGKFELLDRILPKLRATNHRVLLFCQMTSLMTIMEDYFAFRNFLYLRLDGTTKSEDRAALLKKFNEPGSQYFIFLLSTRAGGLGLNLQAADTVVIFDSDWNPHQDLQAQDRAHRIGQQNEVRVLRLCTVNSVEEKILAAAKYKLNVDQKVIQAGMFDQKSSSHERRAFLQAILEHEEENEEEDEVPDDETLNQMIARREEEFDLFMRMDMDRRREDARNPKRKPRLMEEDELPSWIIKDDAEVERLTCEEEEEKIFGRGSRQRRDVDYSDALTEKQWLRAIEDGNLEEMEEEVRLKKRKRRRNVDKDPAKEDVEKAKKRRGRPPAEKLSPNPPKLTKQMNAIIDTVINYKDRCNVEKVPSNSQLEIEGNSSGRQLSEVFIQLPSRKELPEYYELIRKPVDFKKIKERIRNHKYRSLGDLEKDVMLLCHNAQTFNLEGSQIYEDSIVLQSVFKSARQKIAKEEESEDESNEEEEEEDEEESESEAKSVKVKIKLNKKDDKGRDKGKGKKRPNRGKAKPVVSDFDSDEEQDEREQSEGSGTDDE
Experimental: Procedure: A stable HeLa cell line expressing HiBiT-BRM was generated. On day 0, 5000 cells were seeded in 40 μL of media into each well of 384-well cell culture plates. On day 1, cells were treated with 120 nL DMSO or 120 nL of 3-fold serially DMSO-diluted compounds (10 points in duplicate with 30 μM as final top dose). Subsequently plates were incubated for 24 h in a standard tissue culture incubator and equilibrated at room temperature for 15 minutes. Nano-Glo HiBiT Lytic Detection System (Promega N3050) reagent was freshly prepared and 20 ul was added to each well. Upon addition of this LgBit-containing reagent, the HiBiT and LgBiT proteins associate to form the luminescent NanoBiT luciferase. The plates were shaken for 10 minutes at room temperature and the bioluminescence read using an EnVision plate reader (PerkinElmer).
as §1

| SMILES | DC50 [1] | Dmax [1] | DC50 (HiBit-BRM fusion protein) | BRM HiBit Degradation Maximum measured (HiBit-BRM fusion protein) |
| --- | --- | --- | --- | --- |
| CS(=O)(=O)n1ccc(C(=O)NCC(=O)Nc2nc(-c3cccc(-c4ccnc(C5(C(=O)N6CCN(CCOc7ccc8c(c7)C(=O)N(C7CCC(=O)NC7=O)C8=O)CC6)CC5)c4)c3)cs2)c1 (stereo not shown) [Compound 150, N-(2-((4-(3-(2-(1-(4-(2-((2-(2,6-dioxopiperidin-3-yl)-1,3-dioxoisoindolin-5-yl)oxy)ethyl)piperazine-1-carbonyl)cyclopropyl)pyridin-4-yl)phenyl)thiazol-2-yl)amino)-2-oxoethyl)-1-(methylsulfonyl)-1H-pyrrole-3-carboxamide] | 0.1 to 1 µM | > 75% | 0.1 to 1 µM | B (‘B’ = Maximum degradation ≥50% and ≤75%) |
| CS(=O)(=O)n1ccc(C(=O)NCC(=O)Nc2nc(-c3cccc(-c4ccnc(C5(C(=O)N6CC(Oc7ccc8c(c7)C(=O)N(C7CCC(=O)NC7=O)C8=O)C6)CC5)c4)c3)cs2)c1 (stereo not shown) [Compound 141, N-[4-(3-[2-[1-(3-[[2-(2,6-dioxopiperidin-3-yl)-1,3-dioxoisoindol-5-yl]oxy]azetidine-1-carbonyl)cyclopropyl]pyridin-4-yl]phenyl)-1,3-thiazol-2-yl]-2-[(1-methanesulfonylpyrrol-3-yl)formamido]acetamide] | > 10 µM | < 50% | 0.1 to 1 µM | B (‘B’ = Maximum degradation ≥50% and ≤75%) |
| CS(=O)(=O)n1ccc(C(=O)N[C@@H](COCc2ccc(C(=O)N3CCC(CN4CCN(c5ccc6c(c5)C(=O)N(C5CCC(=O)NC5=O)C6=O)CC4)CC3)cc2)C(=O)Nc2nc(-c3ccccc3)cs2)c1 (stereo partly drawn) [Compound 192, (2S)-3-([4-[4-([4-[2-(2,6-dioxopiperidin-3-yl)-1,3-dioxoisoindol-5-yl]piperazin-1-yl]methyl)piperidine-1-carbonyl]phenyl]methoxy)-2-[(1-methanesulfonylpyrrol-3-yl)formamido]-N-(4-phenyl-1,3-thiazol-2-yl)propanamide; formic acid] | > 10 µM | < 50% | > 10 µM | C (‘C’ = Maximum degradation <50%) |
| CN(CC(=O)NCCOCCOCCNc1cccc2c1C(=O)N(C1CCC(=O)NC1=O)C2=O)c1cc(-c2cccc(-c3csc(NC(=O)CNC(=O)c4ccn(S(C)(=O)=O)c4)n3)c2)ccn1 (stereo not shown) [Compound 9, N-(2-((4-(3-(2-((2-((2-(2-(2-((2-(2,6-dioxopiperidin-3-yl)-1,3-dioxoisoindolin-4-yl)amino)ethoxy)ethoxy)ethyl)amino)-2-oxoethyl)(methyl)amino)pyridin-4-yl)phenyl)thiazol-2-yl)amino)-2-oxoethyl)-1-(methylsulfonyl)-1H-pyrrole-3-carboxamide] | > 10 µM | < 50% | > 10 µM | C (‘C’ = Maximum degradation <50%) |
| CS(=O)(=O)n1ccc(C(=O)NCC(=O)Nc2nc(-c3cccc(-c4ccnc(C5(C(=O)NCC6CCN(CCOc7ccc8c(c7)C(=O)N(C7CCC(=O)NC7=O)C8=O)CC6)CC5)c4)c3)cs2)c1 (stereo not shown) [Compound 149, N-[[1-(2-[[2-(2,6-dioxopiperidin-3-yl)-1,3-dioxoisoindol-5-yl]oxy]ethyl)piperidin-4-yl]methyl]-1-[4-[3-(2-[2-[(1-methanesulfonylpyrrol-3-yl)formamido]acetamido]-1,3-thiazol-4-yl)phenyl]pyridin-2-yl]cyclopropane-1-carboxamide] | 0.1 to 1 µM | > 75% | 0.1 to 1 µM | A (‘A’ = Maximum degradation >75%) |
| CS(=O)(=O)n1ccc(C(=O)NCC(=O)Nc2nc(-c3cccc(-c4ccnc(N5CCN(C(=O)C6CC6CNC(=O)COc6cccc7c6C(=O)N(C6CCC(=O)NC6=O)C7=O)CC5)c4)c3)cs2)c1 (stereo not shown) [Compound 32, N-[2-[[4-[3-[2-[4-[2-[[[2-[2-(2,6-dioxo-3-piperidyl)-1,3-dioxo-isoindolin-4-yl]oxyacetyl]amino]methyl]cyclopropanecarbonyl]piperazin-1-yl]-4-pyridyl]phenyl]thiazol-2-yl]amino]-2-oxo-ethyl]-1-methylsulfonyl-pyrrole-3-carboxamide] | > 10 µM | < 50% | > 10 µM | C (‘C’ = Maximum degradation <50%) |
| Cc1ncsc1-c1ccc(CNC(=O)[C@@H]2C[C@@H](O)CN2C(=O)[C@@H](NC(=O)COCCOCCNC(=O)CN(C)c2cc(-c3cccc(-c4csc(NC(=O)CNC(=O)c5ccn(S(C)(=O)=O)c5)n4)c3)ccn2)C(C)(C)C)cc1 [Compound 94, N-(2-((4-(3-(2-(((S)-13-((2S,4R)-4-hydroxy-2-((4-(4-methylthiazol-5-yl)benzyl)carbamoyl)pyrrolidine-1-carbonyl)-14,14-dimethyl-2,11-dioxo-6,9-dioxa-3,12-diazapentadecyl)(methyl)amino)-pyridin-4-yl)phenyl)thiazol-2-yl)amino)-2-oxoethyl)-1-(methylsulfonyl)-1H-pyrrole-3-carboxamide] | > 10 µM | < 50% | > 10 µM | C (‘C’ = Maximum degradation <50%) |
| Cc1cc(C(=O)NCC(=O)Nc2nc(-c3cccc(-c4ccnc(N(C)CC(=O)NCCCCCNc5cccc6c5C(=O)N(C5CCC(=O)NC5=O)C6=O)c4)c3)cs2)cn1S(C)(=O)=O (stereo not shown) [Compound 125, N-(2-((4-(3-(2-((2-((5-((2-(2,6-dioxopiperidin-3-yl)-1,3-dioxoisoindolin-4-yl)amino)pentyl)amino)-2-oxoethyl)(methyl)amino)pyridin-4-yl)phenyl)thiazol-2-yl)amino)-2-oxoethyl)-5-methyl-1-(methylsulfonyl)-1H-pyrrole-3-carboxamide] | > 10 µM | < 50% | > 10 µM | C (‘C’ = Maximum degradation <50%) |
| CS(=O)(=O)n1ccc(C(=O)N[C@@H](CCCCNC(=O)CCOCCOCCOc2cccc3c2C(=O)N(C2CCC(=O)NC2=O)C3=O)C(=O)Nc2nc(-c3ccccc3)cs2)c1 (stereo partly drawn) [Compound 288, (2S)-6-[3-[2-(2-[[2-(2,6-dioxopiperidin-3-yl)-1,3-dioxoisoindol-4-yl]oxy]ethoxy)ethoxy]propanamido]-2-[(1-methanesulfonylpyrrol-3-yl)formamido]-N-(4-phenyl-1,3-thiazol-2-yl)hexanamide] | > 10 µM | < 50% | > 10 µM | C (‘C’ = Maximum degradation <50%) |
| Cc1cc(C(=O)NCC(=O)Nc2nc(-c3cccc(-c4ccnc(N(C)CC(=O)N5CCC(C6CCN(C(=O)COc7cccc8c7C(=O)N(C7CCC(=O)NC7=O)C8=O)CC6)CC5)c4)c3)cs2)cn1S(C)(=O)=O (stereo not shown) [Compound 130, N-[2-[[4-[3-[2-[[2-[4-[1-[2-[2-(2,6-dioxo-3-piperidyl)-1,3-dioxo-isoindolin-4-yl]oxyacetyl]-4-piperidyl]-1-piperidyl]-2-oxo-ethyl]-methyl-amino]-4-pyridyl]phenyl]thiazol-2-yl]amino]-2-oxo-ethyl]-5-methyl-1-methylsulfonyl-pyrrole-3-carboxamide] | > 10 µM | < 50% | > 10 µM | C (‘C’ = Maximum degradation <50%) |
| CS(=O)(=O)n1ccc(C(=O)NCC(=O)Nc2nc(-c3cccc(-c4ccnc(C5(C(=O)N6CCN(c7ccc8c(c7)C(=O)N(C7CCC(=O)NC7=O)C8=O)CC6)CC5)c4)c3)cs2)c1 (stereo not shown) [Compound 132, N-(4-[3-[2-(1-[4-[2-(2,6-dioxopiperidin-3-yl)-1,3-dioxoisoindol-5-yl]piperazine-1-carbonyl]cyclopropyl)pyridin-4-yl]phenyl]-1,3-thiazol-2-yl)-2-[(1-methanesulfonylpyrrol-3-yl)formamido]acetamide] | > 10 µM | < 50% | > 10 µM | C (‘C’ = Maximum degradation <50%) |
| CS(=O)(=O)n1ccc(C(=O)NCC(=O)Nc2nc(-c3cccc(-c4ccnc(C5(C(=O)NCCS(=O)(=O)CCNc6cccc7c6C(=O)N(C6CCC(=O)NC6=O)C7=O)CC5)c4)c3)cs2)c1 (stereo not shown) [Compound 102, N-[2-[[4-[3-[2-[1-[2-[2-[[2-(2,6-dioxo-3-piperidyl)-1,3-dioxo-isoindolin-4-yl]amino]ethylsulfonyl]ethylcarbamoyl]-cyclopropyl]-4-pyridyl]phenyl]thiazol-2-yl]amino]-2-oxo-ethyl]-1-methylsulfonylpyrrole-3-carboxamide] | 0.1 to 1 µM | 50 to 75% | > 10 µM | C (‘C’ = Maximum degradation <50%) |
| Cc1ncsc1-c1ccc(CNC(=O)[C@@H]2C[C@@H](O)CN2C(=O)[C@@H](NC(=O)CCCCCCCCCCCC(=O)NCc2cccc(-c3cccc(-c4csc(NC(=O)CNC(=O)c5ccn(S(C)(=O)=O)c5)n4)c3)c2)C(C)(C)C)cc1 [Compound 114] |  | > 75% |  |  |
